Where two headings read alike, the source gives them in different places. Numbered stars: 1 amine (or outer) side, 2 acyl side, 3 side chain; on linkers, the order of the positions; unused ones are H or OH. Square brackets hold non-standard residues; d marks the D form. Side chains are listed from the residue outwards. Peptide text beside a SMILES is read from it. * marks the point of attachment. C20 diacid = O=C(O)CCCCCCCCCCCCCCCCCCC(=O)*; Phe(4-CH2NH2) = NCc1ccc(C[C@H](N)C(=O)O)cc1; C18 diacid = O=C(O)CCCCCCCCCCCCCCCCC(=O)*; C16 diacid = O=C(O)CCCCCCCCCCCCCCC(=O)*; γGlu = O=C(O)[C@H](CCC(=O)[*:2])N[*:1]; Met(O2) = CS(=O)(=O)CC[C@H](N)C(=O)O; αMeD = C[C@](N)(CC(=O)O)C(=O)O; αMeS = C[C@](N)(CO)C(=O)O; AEEA = NCCOCCOCC(=O)O; Aib = CC(C)(N)C(=O)O
What was measured:
[1] = target: T1, human GCGR (Homo sapiens, UniProt P47871); experiment: cAMP activity assay at the Glucagon receptor (GCGR); format: cell-based; conditions: for hGCGR/hGLP1R (hTone): ratio of GCGR EC50 to GLP1R EC50
T1 construct: expressed in transfected cells; growth medium holds Blasticidin and Hygromycin
How it was run: (§1)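 Peptides serially diluted from DMSO (10 points) and added to frozen-stock cells bearing human GLP1R (10,000 cells/well) or GCGR (30,000 cells/well), 1 h at RT, dark. EC50 by four-parameter logistic fit of HitHunter cAMPXS luminescence, read following overnight RT incubation.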

[2] = target: T2, human GLP1R (Homo sapiens, UniProt P43220); experiment: cAMP activity assay at the GLP-1 receptor (GLP1R); format: cell-based
T2 construct: expressed in transfected cells; growth medium holds Blasticidin and Hygromycin
How it was run: as §1

[3] = summary statement: EC50 at each of the glucagon and GLP-1 receptors, read-out: EC50 at the glucagon receptor
[4] = summary statement: EC50 at each of the glucagon and GLP-1 receptors, read-out: EC50 at the GLP-1 receptor
[5] = cells expressing human GLP1R, cAMP production, buffer with or without 20% human serum (not stated which), read-out: GLP1R EC50 human

T1 sequence (P47871 26-477): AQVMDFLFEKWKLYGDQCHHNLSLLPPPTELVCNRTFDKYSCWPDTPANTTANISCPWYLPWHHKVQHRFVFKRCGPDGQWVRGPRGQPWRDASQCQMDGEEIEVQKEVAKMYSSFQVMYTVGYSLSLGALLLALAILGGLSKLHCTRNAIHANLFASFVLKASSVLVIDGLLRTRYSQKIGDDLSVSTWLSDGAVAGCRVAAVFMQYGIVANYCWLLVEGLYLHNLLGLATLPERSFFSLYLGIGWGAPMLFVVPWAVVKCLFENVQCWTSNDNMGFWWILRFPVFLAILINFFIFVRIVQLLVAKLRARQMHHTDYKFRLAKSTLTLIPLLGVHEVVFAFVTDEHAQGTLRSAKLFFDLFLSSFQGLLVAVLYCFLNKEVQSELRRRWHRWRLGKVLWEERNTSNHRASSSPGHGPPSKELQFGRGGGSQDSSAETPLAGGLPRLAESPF
T2 sequence (P43220 24-463): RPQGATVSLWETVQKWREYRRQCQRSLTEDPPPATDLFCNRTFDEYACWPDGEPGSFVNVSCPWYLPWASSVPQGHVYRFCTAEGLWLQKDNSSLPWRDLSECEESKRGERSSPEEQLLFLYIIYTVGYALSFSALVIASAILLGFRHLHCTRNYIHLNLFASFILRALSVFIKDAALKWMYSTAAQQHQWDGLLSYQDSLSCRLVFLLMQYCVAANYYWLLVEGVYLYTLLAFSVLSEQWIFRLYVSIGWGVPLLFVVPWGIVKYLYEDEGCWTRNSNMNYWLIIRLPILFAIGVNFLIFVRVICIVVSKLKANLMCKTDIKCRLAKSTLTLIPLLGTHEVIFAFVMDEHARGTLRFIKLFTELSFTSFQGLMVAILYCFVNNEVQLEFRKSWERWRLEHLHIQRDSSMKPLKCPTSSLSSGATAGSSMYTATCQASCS

**Q.** How did the “hGCGR/hGLP1R (hTone)” value [1] turn out when CC(C)C[C@H](NC(=O)[C@H](Cc1ccc(O)cc1)NC(=O)[C@H](CCCCN)NC(=O)[C@H](CO)NC(=O)[C@H](Cc1ccc(O)cc1)NC(=O)[C@H](CC(=O)O)NC(=O)[C@H](CO)NC(=O)[C@@H](NC(=O)[C@H](Cc1ccccc1)NC(=O)[C@@H](NC(=O)CNC(=O)[C@H](CCC(N)=O)NC(=O)C(C)(C)NC(=O)[C@@H](N)Cc1c[nH]cn1)[C@@H](C)O)[C@@H](C)O)C(=O)N[C@@H](CC(=O)O)C(=O)N[C@@H](C)C(=O)N[C@@H](CCCNC(=N)N)C(=O)N[C@@H](C)C(=O)N[C@@H](C)C(=O)N[C@@H](CCC(N)=O)C(=O)N[C@@H](CC(=O)O)C(=O)N[C@@H](Cc1ccccc1)C(=O)N[C@H](C(=O)N[C@@H](CCC(N)=O)C(=O)N[C@@H](Cc1c[nH]c2ccccc12)C(=O)N[C@@H](CC(C)C)C(=O)N[C@@H](CCS(C)(=O)=O)C(=O)N[C@@H](CCCCNC(=O)COCCOCCNC(=O)COCCOCCNC(=O)CC[C@H](NC(=O)CCCCCCCCCCCCCCCCC(=O)O)C(=O)O)C(=O)N[C@H](C(N)=O)[C@@H](C)O)C(C)C [TP602] (H-H[Aib]QGTFTSDYSKYLDARAAQDFVQWL[Met(O2)]K([AEEA-AEEA-γGlu-C18 diacid])T-NH2) was run?
**A.** 6.3

**Q.** And the EC50 [1, 3]?
**A.** < 5 nM

**Q.** And the EC50 [2, 4]?
**A.** < 5 nM

**Q.** For CC(C)C[C@H](NC(=O)[C@H](Cc1ccc(O)cc1)NC(=O)[C@H](CCCCN)NC(=O)[C@H](CO)NC(=O)[C@H](Cc1ccc(O)cc1)NC(=O)[C@H](CC(=O)O)NC(=O)[C@H](CO)NC(=O)[C@@H](NC(=O)[C@H](Cc1ccccc1)NC(=O)[C@@H](NC(=O)CNC(=O)[C@H](CCC(N)=O)NC(=O)C(C)(C)NC(=O)[C@@H](N)Cc1c[nH]cn1)[C@@H](C)O)[C@@H](C)O)C(=O)N[C@@H](CC(=O)O)C(=O)N[C@@H](C)C(=O)N[C@@H](CCCNC(=N)N)C(=O)N[C@@H](C)C(=O)N[C@@H](C)C(=O)N[C@@H](CCCCNC(=O)COCCOCCNC(=O)CC[C@H](NC(=O)CCCCCCCCCCCCCCCCCCC(=O)O)C(=O)O)C(=O)N[C@@H](CC(=O)O)C(=O)N[C@@H](Cc1ccccc1)C(=O)N[C@H](C(=O)N[C@@H](CCC(N)=O)C(=O)N[C@@H](Cc1c[nH]c2ccccc12)C(=O)N[C@@H](CC(C)C)C(=O)N[C@@H](CCS(C)(=O)=O)C(=O)N[C@@](C)(CC(=O)O)C(=O)N[C@H](C(N)=O)[C@@H](C)O)C(C)C [TP629] (H-H[Aib]QGTFTSDYSKYLDARAAK([AEEA-γGlu-C20 diacid])DFVQWL[Met(O2)][αMeD]T-NH2; N-terminus assumed), which “hGCGR/hGLP1R (hTone)” value [1] is on record?
**A.** 1.4

**Q.** And the EC50 [1, 3]?
**A.** < 5 nM

**Q.** And the EC50 [2, 4]?
**A.** < 5 nM

**Q.** CC(C)C[C@H](NC(=O)[C@H](Cc1ccc(O)cc1)NC(=O)[C@H](CCCCN)NC(=O)[C@H](CO)NC(=O)[C@H](Cc1ccc(O)cc1)NC(=O)[C@H](CC(=O)O)NC(=O)[C@H](CO)NC(=O)[C@@H](NC(=O)[C@H](Cc1ccccc1)NC(=O)[C@@H](NC(=O)CNC(=O)[C@H](CCC(N)=O)NC(=O)C(C)(C)NC(=O)[C@@H](N)Cc1c[nH]cn1)[C@@H](C)O)[C@@H](C)O)C(=O)N[C@@H](CC(=O)O)C(=O)N[C@@H](C)C(=O)N[C@@H](CCCNC(=N)N)C(=O)N[C@@H](C)C(=O)N[C@@H](C)C(=O)N[C@@H](CCC(N)=O)C(=O)N[C@@H](CC(=O)O)C(=O)N[C@@H](Cc1ccccc1)C(=O)N[C@H](C(=O)N[C@@H](Cc1ccc(CNC(=O)COCCOCCNC(=O)COCCOCCNC(=O)CC[C@H](NC(=O)CCCCCCCCCCCCCCCCCCC(=O)O)C(=O)O)cc1)C(=O)N[C@@H](Cc1c[nH]c2ccccc12)C(=O)N[C@@H](CC(C)C)C(=O)N[C@@H](CC(C)C)C(=O)N[C@@H](CC(=O)O)C(=O)N[C@H](C(N)=O)[C@@H](C)O)C(C)C [TP584] (H-H[Aib]QGTFTSDYSKYLDARAAQDFV[Phe(4-CH2NH2)]([AEEA-AEEA-γGlu-C20 diacid])WLLDT-NH2) was tested. Which “hGCGR/hGLP1R (hTone)” value [1] did it give?
**A.** 4.6

**Q.** What about the EC50 [1, 3] of the same compound?
**A.** < 5 nM

**Q.** And the EC50 [2, 4]?
**A.** < 5 nM

**Q.** What does the source list for CC(C)C[C@H](NC(=O)[C@H](Cc1ccc(O)cc1)NC(=O)[C@H](CCCCN)NC(=O)[C@H](CO)NC(=O)[C@H](Cc1ccc(O)cc1)NC(=O)[C@H](CC(=O)O)NC(=O)[C@H](CO)NC(=O)[C@@H](NC(=O)[C@H](Cc1ccccc1)NC(=O)[C@@H](NC(=O)CNC(=O)[C@H](CCC(N)=O)NC(=O)C(C)(C)NC(=O)[C@@H](N)Cc1c[nH]cn1)[C@@H](C)O)[C@@H](C)O)C(=O)N[C@@H](CC(=O)O)C(=O)N[C@@H](C)C(=O)N[C@@H](CCCNC(=N)N)C(=O)N[C@@H](C)C(=O)N[C@@H](C)C(=O)N[C@@H](CCCCNC(=O)COCCOCCNC(=O)COCCOCCNC(=O)CC[C@H](NC(=O)CCCCCCCCCCCCCCCCC(=O)O)C(=O)O)C(=O)N[C@@H](CC(=O)O)C(=O)N[C@@H](Cc1ccccc1)C(=O)N[C@H](C(=O)N[C@@H](CCC(N)=O)C(=O)N[C@@H](Cc1c[nH]c2ccccc12)C(=O)N[C@@H](CC(C)C)C(=O)N[C@@H](CCS(C)(=O)=O)C(=O)N[C@@H](CCC(N)=O)C(=O)N[C@H](C(N)=O)[C@@H](C)O)C(C)C [TP600] (H-H[Aib]QGTFTSDYSKYLDARAAK([AEEA-AEEA-γGlu-C18 diacid])DFVQWL[Met(O2)]QT-NH2; N-terminus assumed)?
**A.** hGCGR/hGLP1R (hTone) [1]: 3.1; EC50 [1, 3]: < 5 nM; EC50 [2, 4]: < 5 nM

**Q.** CC(C)C[C@H](NC(=O)[C@H](Cc1ccc(O)cc1)NC(=O)[C@H](CCCCN)NC(=O)[C@H](CO)NC(=O)[C@H](Cc1ccc(O)cc1)NC(=O)[C@H](CC(=O)O)NC(=O)[C@H](CO)NC(=O)[C@@H](NC(=O)[C@H](Cc1ccccc1)NC(=O)[C@@H](NC(=O)CNC(=O)[C@H](CCC(N)=O)NC(=O)C(C)(C)NC(=O)[C@@H](N)Cc1c[nH]cn1)[C@@H](C)O)[C@@H](C)O)C(=O)N[C@@H](CC(=O)O)C(=O)N[C@@H](C)C(=O)N[C@@H](CCCNC(=N)N)C(=O)N[C@@H](C)C(=O)N[C@@H](C)C(=O)N[C@@H](CCCCNC(=O)COCCOCCNC(=O)COCCOCCNC(=O)COCCOCCNC(=O)CC[C@H](NC(=O)CCCCCCCCCCCCCCCCC(=O)O)C(=O)O)C(=O)N[C@@H](CC(=O)O)C(=O)N[C@@H](Cc1ccccc1)C(=O)N[C@H](C(=O)N[C@@H](CCC(N)=O)C(=O)N[C@@H](Cc1c[nH]c2ccccc12)C(=O)N[C@@H](CC(C)C)C(=O)N[C@@H](CCS(C)(=O)=O)C(=O)N[C@@](C)(CC(=O)O)C(=O)N[C@H](C(N)=O)[C@@H](C)O)C(C)C [TP677] (H-H[Aib]QGTFTSDYSKYLDARAAK([AEEA-AEEA-AEEA-γGlu-C18 diacid])DFVQWL[Met(O2)][αMeD]T-NH2; N-terminus assumed) was tested. Which “hGCGR/hGLP1R (hTone)” value [1] did it give?
**A.** 1.9

**Q.** And the EC50 [1, 3]?
**A.** < 5 nM

**Q.** What about the EC50 [2, 5] of the same compound?
**A.** 0.76 nM

**Q.** And the EC50 [2, 4]?
**A.** < 5 nM

**Q.** Which “hGCGR/hGLP1R (hTone)” value [1] does the source give for CC(C)C[C@H](NC(=O)[C@H](Cc1ccc(O)cc1)NC(=O)[C@H](CCCCN)NC(=O)[C@H](CO)NC(=O)[C@H](Cc1ccc(O)cc1)NC(=O)[C@H](CC(=O)O)NC(=O)[C@H](CO)NC(=O)[C@@H](NC(=O)[C@H](Cc1ccccc1)NC(=O)[C@@H](NC(=O)CNC(=O)[C@H](CCC(N)=O)NC(=O)[C@](C)(CO)NC(=O)[C@@H](N)Cc1c[nH]cn1)[C@@H](C)O)[C@@H](C)O)C(=O)N[C@@H](CC(=O)O)C(=O)N[C@@H](C)C(=O)N[C@@H](CCCNC(=N)N)C(=O)N[C@@H](C)C(=O)N[C@@H](C)C(=O)N[C@@H](CCC(N)=O)C(=O)N[C@@H](CCCCNC(=O)COCCOCCNC(=O)COCCOCCNC(=O)CC[C@H](NC(=O)CCCCCCCCCCCCCCC(=O)O)C(=O)O)C(=O)N[C@@H](Cc1ccccc1)C(=O)N[C@H](C(=O)N[C@@H](CCC(N)=O)C(=O)N[C@@H](Cc1c[nH]c2ccccc12)C(=O)N[C@@H](CC(C)C)C(=O)N[C@@H](CCS(C)(=O)=O)C(=O)N[C@@](C)(CC(=O)O)C(=O)N[C@H](C(N)=O)[C@@H](C)O)C(C)C [TP615] (H-H[αMeS]QGTFTSDYSKYLDARAAQK([AEEA-AEEA-γGlu-C16 diacid])FVQWL[Met(O2)][αMeD]T-NH2) here?
**A.** 0.6

**Q.** What about the EC50 [1, 3] of the same compound?
**A.** < 5 nM

**Q.** What about the EC50 [2, 4] of the same compound?
**A.** < 5 nM

**Q.** For CC(C)C[C@H](NC(=O)[C@H](CCCCN)NC(=O)[C@H](CCCCN)NC(=O)[C@H](CO)NC(=O)[C@H](Cc1ccc(O)cc1)NC(=O)[C@H](CCC(=O)O)NC(=O)[C@H](CO)NC(=O)[C@@H](NC(=O)[C@H](Cc1ccccc1)NC(=O)[C@@H](NC(=O)CNC(=O)[C@H](CCC(N)=O)NC(=O)C(C)(C)NC(=O)[C@@H](N)Cc1c[nH]cn1)[C@@H](C)O)[C@@H](C)O)C(=O)N[C@@H](CC(=O)O)C(=O)N[C@@H](C)C(=O)N[C@@H](CCCNC(=N)N)C(=O)N[C@@H](C)C(=O)N[C@@H](C)C(=O)N[C@@H](CCC(N)=O)C(=O)N[C@@H](CC(=O)O)C(=O)N[C@@H](Cc1ccccc1)C(=O)N[C@H](C(=O)N[C@@H](CCCCNC(=O)COCCOCCNC(=O)COCCOCCNC(=O)CC[C@H](NC(=O)CCCCCCCCCCCCCCCCC(=O)O)C(=O)O)C(=O)N[C@@H](Cc1c[nH]c2ccccc12)C(=O)N[C@@H](CC(C)C)C(=O)N[C@@H](CCS(C)(=O)=O)C(=O)N[C@@H](CC(=O)O)C(=O)N[C@H](C(N)=O)[C@@H](C)O)C(C)C [TP699] (H-H[Aib]QGTFTSEYSKKLDARAAQDFVK([AEEA-AEEA-γGlu-C18 diacid])WL[Met(O2)]DT-NH2), which EC50 ([1]; cells expressing human GCGR, cAMP production, buffer with or without 20% human serum (not stated which), read-out: GCGR EC50 human) is on record?
**A.** > 19.8 nM

**Q.** What about the EC50 [2, 5] of the same compound?
**A.** > 19.8 nM

— patent US11566057B2, “Long-acting co-agonists of the glucagon and GLP-1 receptors” (Merck Sharp & Dohme Corp., priority 2017, dated 2023)
